From ChEMBL document CHEMBL1142044, “Estrogen receptor ligands. Part 10: Chromanes: old scaffolds for new SERAMs” (Bioorg Med Chem Lett, 2005)

What was measured:
Type in all cases: ADME, organism-based
[1] = Bioavailability in rat (female) (dose 1 mg/kg i.v. and 2 mg/kg p.o.); details: in vivo, po
[2] = Plasma clearance in female rat was determined with intravenous dosing at 1 mpk and oral dosing at 2 mpk; details: 1 mg/kg
[3] = Half life in female rat was determined with intravenous dosing at 1 mpk and oral dosing at 2 mpk; details: in vivo

Row | bioavailability [1] [%] | clearance [2] [mL/min/kg] | half-life [3] [h] | SMILES
1 | 2 | 9.5 | 5.9 | C[C@@H]1c2ccc(O)cc2O[C@@H](c2ccc(OCCN3CCCCC3)cc2)[C@H]1c1ccc(O)cc1
2 | 45 | 7.7 | 8.1 | C[C@@H]1c2cc(O)ccc2O[C@@H](c2ccc(OCCN3CCCCC3)cc2)[C@H]1c1ccc(O)cc1
3 | 31 | 42.6 | 4.4 | C[C@@H]1c2c(ccc(O)c2F)O[C@@H](c2ccc(OC[C@H](C)N3CCCC3)cc2)[C@H]1c1ccc(O)cc1

The next lines start with the compound.

Row | SMILES | bioavailability [1] [%] | clearance [2] [mL/min/kg] | half-life [3] [h]
4 | C[C@H]1CCN([C@@H](C)COc2ccc([C@@H]3Oc4ccc(O)c(F)c4[C@@H](C)[C@@H]3c3ccc(O)cc3)cc2)C1 | 44 | 9 | 6.1
5 | C[C@@H]1c2c(ccc(O)c2F)O[C@@H](c2ccc(OCCN3CCCCC3)cc2)[C@H]1c1ccc(O)cc1 | 54 | 16.9 | 11.2
6 | C[C@@H]1CCN(CCOc2ccc([C@@H]3Oc4ccc(O)c(F)c4[C@@H](C)[C@@H]3c3ccc(O)cc3)cc2)C1 | 43 | 17.8 | 8
